Assay results from article PMC9727064, “Performance assessment and economic analysis of a human Liver-Chip for predictive toxicology” (Communications Medicine, 2022).
Read-outs that look alike come from different tables or passages of the source.

Tests used:
[1] = test system: human Liver-Chip (primary human hepatocytes); test: Liver-Chip alanine transaminase (ALT) release in top channel effluent (ELISA); type: cell-based; conditions: for ALT change in words: Liver-Chip effluent
Text: Cycles 1 to 4 tested 6–8 concentrations in duplicate for each of 10–13 drugs. To determine which sampling strategy was optimal for cycles 1 to 4 (16 doses × 1 replicate, 8 × 2, 5 × 3, or 4 × 4), we generated three different “dose-response” synthetic datasets, each distorted by different noise levels (low, medium, or high). For each of these datasets, we performed curve-fitting analyses and calculated the Root Mean Square Error between the “true” and estimated IC50 parameter. […] Some drugs were also repeated across cycles (on different donors or at different concentrations) to ensure experimental robustness. However, to replicate a more typical study design likely to be carried out by scientists in the pharmaceutical industry, we created cycle 5 with 6 drugs, where each was tested in 4 concentrations in triplicate. For each cycle, chips were dosed with drug over 8 days (referred to as Day 0 through Day 7).
The drug dosing concentrations were determined from the unbound human Cmax of each drug. First, the expected fraction of drug unbound in media with 2% FBS was extrapolated from plasma binding data for each drug. Dosing concentrations were then back calculated such that the unbound fraction in media would reflect relevant multiples of unbound human Cmax (Supplementary Data 1).
On the first dosing day (Day 0), all chips were imaged using the ECHO microscope. Five hundred microliters of effluent was collected from all four reservoirs of the pod and placed in a labeled 96-well plate. After collection, all the remaining media was carefully aspirated before dosing with 3.8 mL of corresponding dosing solution. Dosing occurred on study days 0, 2, and 4 for chips flowing at 30 µL/h, and on days 0, 1, 2, 3, 4, 5, and 6 for chips flowing at 150 µL/h. Effluent collection occurred on days 1, 3, and 7.
Top channel outlet effluents were analyzed to quantify albumin and alanine transaminase (ALT) levels on days 1, 3, and 7 using sandwich ELISA kits (Abcam, Albumin ab179887, ALT ab234578) according to vendor-provided protocols. Frozen (−80 °C) effluent samples were thawed overnight at 4 °C prior to assay. The Hamilton Vantage liquid handling platform was used to manage effluent dilutions (1:500 for albumin, neat for ALT), preparation of standard curves, and addition of antibody cocktail. Absorbance at 450 nm was measured using the SynergyNeo Microplate Reader (BioTek).

[2] = test system: human Liver-Chip (hepatocytes and non-parenchymal cells)
Method: At least four to six brightfield images were acquired per chip for morphology analysis. […] Brightfield images were acquired across three fields of view on days 1, 3, and 7 for each cycle. Cytotoxicity classification was performed while acquiring images for both NPCs and hepatocytes. Images were then scored zero to four by blinded individuals (n = 2) based on severity of agglomeration of cell debris for both channels. The scoring matrix and representative images have been included in the supplement (Supplementary Fig. 1).
Hepatocyte layer on Chips
Non-parenchymal cell layer on Chips
Supplementary Figure 1. (a) Representative brightfield images to depict the cellular morphology score in the top channel of the Liver-Chip which contains hepatocytes. A score of 0 represents no hepatotoxicity detected, which is defined by 95-100% healthy hepatocyte morphology, hexagonal shape containing binucleated cells, clear cell cytoplasm, distinctive cell junctions and less than 5% dead cells. A score of 1 […]
cells. A score of 2 represents mild hepatotoxicity with > 70% monolayer of hepatocytes visible, evidence that cells have begun to lose their distinct cell junctions, many cells contain a granulated cytoplasm but < 30% are dead cells. A score of 3 represents moderate hepatotoxicity with severe granulation of cytoplasm and most of the cells have lost their junctions. Approximately 50% of the cells are considered dead. A score of 4 represents severe hepatotoxicity with agglomeration of cell debris and > 50% of the cells are considered dead. The pores on the membrane become visible as there is no longer a cellular monolayer. (b) Representative brightfield images to depict the cellular morphology score in the bottom channel of the Liver-Chip which contains non-parenchymal cells. A score of 0 represents no cytotoxicity detected, with an intact monolayer and <1% of the cells are dead. A score of 1 represents at least 90% of the monolayer is present and there are <10% dead cells. A score of 2 represents mild cytotoxicity with > 80% of the monolayer present and < 20% are dead cells. A score of 3 represents moderate cytotoxicity with > 50% of the monolayer present and < 50% are dead cells. A score of 4 represents severe cytotoxicity with > 50% of the cells are considered dead. (bar, 50 μm). […]

[3] = cited from earlier work
[4] = test system: clinical drug-induced liver injury; conditions: clinical DILI severity category 1 to 5; cited from earlier work
[5] = expanded drug list, lowest concentration causing an increase in ALT release
[6] = lowest concentration causing an increase in ALT protein

SMILES | ALT Donor 1 [1, 5] | ALT Donor 2 [1, 5] | Morphology Donor 1 ([2]; human) | Morphology Donor 2 ([2]; human) | Expected Fraction Unbound in Plasma ([3]; plasma, ref Lau, S.W.J. (65)) | Garside DILI rank [4] | ALT change in words [1] | Morphology Donor 1 ([2]; expanded drug list, lowest concentration causing an increase in morphology score, donor 1) | Morphology Donor 2 ([2]; expanded drug list, lowest concentration causing an increase in morphology score, donor 2) | Morphological injury score change in words [2] | ALT Donor 1 [1, 6] | ALT Donor 2 [1, 6] | Morphology Donor 1 ([2]; lowest concentration causing an increase in cellular morphology score, donor 1) | Morphology Donor 2 ([2]; lowest concentration causing an increase in cellular morphology score, donor 2) | Expected Fraction Unbound in Plasma ([3]; plasma, reference data from the literature, no reference) | plasma protein bound [3] [%] | Expected Fraction Unbound in Plasma ([3]; human plasma, ref Scott, L. J. (69))
Cc1cn([C@H]2C=C[C@@H](CO)O2)c(=O)[nH]c1=O [Stavudine] | 300 unbound human Cmax multiplier | > 300 unbound human Cmax multiplier | 300 unbound human Cmax multiplier | 300 unbound human Cmax multiplier | 1 | 1 |  |  |  |  |  |  |  |  |  |  | 
Nc1c2c(nc3ccccc13)CCCC2 [Tacrine] | > 300 unbound human Cmax multiplier | > 1000 unbound human Cmax multiplier |  |  | 0.25 | 2 | not associated with any release of ALT | > 300 unbound human Cmax multiplier | > 1000 unbound human Cmax multiplier |  |  |  |  |  |  |  | 
CC[C@H]1OC(=O)[C@H](C)C(=O)[C@H](C)[C@@H](O[C@@H]2O[C@H](C)C[C@H](N(C)C)[C@H]2O)[C@](C)(OC)C[C@@H](C)C(=O)[C@H](C)[C@H]2N(CCCCn3cnc(-c4cccnc4)c3)C(=O)O[C@]12C [Telithromycin] | 30 unbound human Cmax multiplier |  | 100 unbound human Cmax multiplier |  | 0.4 | 1 | concomitant increase |  |  | concomitant increase |  |  |  |  |  |  | 
Cc1ccc(C(=O)c2cc(O)c(O)c([N+](=O)[O-])c2)cc1 [Tolcapone] |  |  |  |  | 0.0012 | 1 |  |  |  |  | 100 multiples of the unbound human Cmax | 30 multiples of the unbound human Cmax | 10 multiples of the unbound human Cmax | 100 multiples of the unbound human Cmax |  |  | 
Cc1c(C)c2c(c(C)c1O)CCC(C)(COc1ccc(CC3SC(=O)NC3=O)cc1)O2 (centres unmarked) [Troglitazone] |  |  | 300 multiples of the unbound human Cmax | 300 multiples of the unbound human Cmax |  | 1 |  |  |  |  | 300 multiples of the unbound human Cmax | 300 multiples of the unbound human Cmax |  |  | 0.0011 |  | 
CC(c1cc2ccccc2s1)N(O)C(N)=O (centres unmarked) [Zileuton] | > 100 unbound human Cmax multiplier | > 300 unbound human Cmax multiplier | > 100 unbound human Cmax multiplier | > 300 unbound human Cmax multiplier |  | 2 |  |  |  |  |  |  |  |  |  | > 93 | 0.07
